Source: PubChem BioAssay AID2060888 (Molecular Pharmacology Branch, DTP, NCI, 2025)

System: 695427-040-R-J1-PDC complex spheroid viability
Test: Anticancer human tumor 695427-040-R-J1-PDC patient-derived colon adenocarcinoma cell line growth inhibition [RAS]
Details: for viability, T/C: stronger effect = lower value
Summary of the method: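 Tumour cells grown as complex spheroids with HUVEC endothelial cells and mesenchymal stem cells, treated with RAS pathway inhibitor combinations. Each agent spans half-log steps from near clinical Cmax, or 10 microM where Cmax is unknown.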

[1] = curve of first compound, second compound 0.0316 µM
[2] = curve of first compound, second compound 0.1 µM
[3] = curve of first compound, second compound 0.316 µM
[4] = curve of first compound, second compound 1 µM
[5] = curve of first compound, second compound 3.16 µM
[6] = curve of first compound, second compound 10 µM
[7] = second compound 0.0316 µM, first compound 0.0316 µM
[8] = second compound 0.0316 µM, first compound 0.1 µM
[9] = second compound 0.0316 µM, first compound 0.316 µM
[10] = second compound 0.0316 µM, first compound 1 µM
[11] = second compound 0.0316 µM, first compound 3.16 µM
[12] = second compound 0.0316 µM, first compound 10 µM
[13] = second compound 0.1 µM, first compound 0.0316 µM
[14] = second compound 0.1 µM, first compound 0.1 µM
[15] = second compound 0.1 µM, first compound 0.316 µM
[16] = second compound 0.1 µM, first compound 1 µM
[17] = second compound 0.1 µM, first compound 3.16 µM
[18] = second compound 0.1 µM, first compound 10 µM
[19] = second compound 0.316 µM, first compound 0.0316 µM
[20] = second compound 0.316 µM, first compound 0.1 µM
[21] = second compound 0.316 µM, first compound 0.316 µM
[22] = second compound 0.316 µM, first compound 1 µM
[23] = second compound 0.316 µM, first compound 3.16 µM
[24] = second compound 0.316 µM, first compound 10 µM
[25] = second compound 1 µM, first compound 0.0316 µM
[26] = second compound 1 µM, first compound 0.1 µM
[27] = second compound 1 µM, first compound 0.316 µM
[28] = second compound 1 µM, first compound 1 µM
[29] = second compound 1 µM, first compound 3.16 µM
[30] = second compound 1 µM, first compound 10 µM
[31] = second compound 3.16 µM, first compound 0.0316 µM
[32] = second compound 3.16 µM, first compound 0.1 µM
[33] = second compound 3.16 µM, first compound 0.316 µM
[34] = second compound 3.16 µM, first compound 1 µM
[35] = second compound 3.16 µM, first compound 3.16 µM
[36] = second compound 3.16 µM, first compound 10 µM
[37] = second compound 10 µM, first compound 0.0316 µM
[38] = second compound 10 µM, first compound 0.1 µM
[39] = second compound 10 µM, first compound 0.316 µM
[40] = second compound 10 µM, first compound 1 µM
[41] = second compound 10 µM, first compound 3.16 µM
[42] = second compound 10 µM, first compound 10 µM
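Further: viability read after seven days of drug exposure.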
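Wherever viability, T/C is given: 100% = DMSO vehicle control viability.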

For `CC1(O)CCCC1n1c(=O)c(C(F)F)cc2cnc(NC3CCN(S(C)(=O)=O)CC3)nc21` (stereo unspecified) + C#Cc1c(F)ccc2cc(O)cc(-c3ncc4c(N5CC6CCC(C5)N6)nc(OCC56CCCN5CC(F)C6)nc4c3F)c12, the IC50 [1] was greater than 10 µM, the IC50 [2] was greater than 10 µM and the IC50 [3] was 8.96 µM. It also gave an IC50 [4] of 7.32 µM, an IC50 [5] of 4.29 µM and an IC50 [6] of less than 0.0316 µM. The viability, T/C [7] was 95.4%, the viability, T/C [8] was 95.5% and the viability, T/C [9] was 103%. It also gave a viability, T/C [10] of 123%, a viability, T/C [11] of 122% and a viability, T/C [12] of 57.4%. It also gave a viability, T/C [13] of 104%, a viability, T/C [14] of 94.7% and a viability, T/C [15] of 109%. For the same compound, the viability, T/C [16] was 120%, the viability, T/C [17] was 114% and the viability, T/C [18] was 52.5%. The viability, T/C [19] was 84%, the viability, T/C [20] was 80.6% and the viability, T/C [21] was 97.6%. It also gave a viability, T/C [22] of 103%, a viability, T/C [23] of 104% and a viability, T/C [24] of 45.4%. The viability, T/C [25] was 82.7%, the viability, T/C [26] was 75.3% and the viability, T/C [27] was 78.7%. For the same compound, the viability, T/C [28] was 89.8%, the viability, T/C [29] was 84.2% and the viability, T/C [30] was 38.1%. The viability, T/C [31] was 59.7%, the viability, T/C [32] was 54.7% and the viability, T/C [33] was 64.3%. The viability, T/C [34] was 57.4%, the viability, T/C [35] was 57.3% and the viability, T/C [36] was 30%. It also gave a viability, T/C [37] of 42.9%, a viability, T/C [38] of 41.9% and a viability, T/C [39] of 42.1%. For the same compound, the viability, T/C [40] was 43.4%, the viability, T/C [41] was 36.1% and the viability, T/C [42] was 15.6%.
With `C=CC(=O)N1CCN(c2nc(OCC3CCCN3C)nc3c(F)c(-c4nc(N)cc(C)c4C(F)(F)F)c(Cl)cc23)C(C)C1` (stereo unspecified) the viability, T/C (compound 0.00316 µM) was 97.3% [middle of 12 runs], the viability, T/C (compound 0.0316 µM) was 100% [middle of 12 runs] and the viability, T/C (compound 0.1 µM) was 102% [middle of 12 runs]. The IC50 (compound alone, run of 06/10/2024) was greater than 1 µM and the IC50 (curve of compound) was greater than 1 µM.
`CC(Nc1ccc2c(c1)OCCn1cc(N3C(=O)OCC3C(F)F)nc1-2)C(N)=O` (stereo unspecified) + C#Cc1c(F)ccc2cc(O)cc(-c3ncc4c(N5CC6CCC(C5)N6)nc(OCC56CCCN5CC(F)C6)nc4c3F)c12 showed an IC50 [1] of 1.55 µM, an IC50 [2] of 0.933 µM and an IC50 [3] of 0.422 µM. For the same compound, the IC50 [4] was 0.168 µM, the IC50 [5] was less than 0.0316 µM and the IC50 [6] was less than 0.0316 µM. It also gave a viability, T/C [7] of 78.2%, a viability, T/C [8] of 69.5% and a viability, T/C [9] of 58.5%. For the same compound, the viability, T/C [10] was 52.1%, the viability, T/C [11] was 47.9% and the viability, T/C [12] was 40.1%. For the same compound, the viability, T/C [13] was 77%, the viability, T/C [14] was 69.7% and the viability, T/C [15] was 59.6%. For the same compound, the viability, T/C [16] was 49.9%, the viability, T/C [17] was 40.4% and the viability, T/C [18] was 35.4%. The viability, T/C [19] was 76.7%, the viability, T/C [20] was 67.1% and the viability, T/C [21] was 52%. The viability, T/C [22] was 39.9%, the viability, T/C [23] was 40.5% and the viability, T/C [24] was 30.3%. It also gave a viability, T/C [25] of 63.1%, a viability, T/C [26] of 54% and a viability, T/C [27] of 45.9%. For the same compound, the viability, T/C [28] was 34.8%, the viability, T/C [29] was 31.9% and the viability, T/C [30] was 23.1%. For the same compound, the viability, T/C [31] was 47.4%, the viability, T/C [32] was 38.3% and the viability, T/C [33] was 30.3%. For the same compound, the viability, T/C [34] was 23.9%, the viability, T/C [35] was 22% and the viability, T/C [36] was 16.9%. The viability, T/C [37] was 33.8%, the viability, T/C [38] was 22.1% and the viability, T/C [39] was 17.1%. It also gave a viability, T/C [40] of 13.6%, a viability, T/C [41] of 12% and a viability, T/C [42] of 10.9%.
Work on `CC1(O)CCCC1n1c(=O)c(C(F)F)cc2cnc(NC3CCN(S(C)(=O)=O)CC3)nc21` (stereo unspecified) + C=CC(=O)N1CCN(c2nc(OCC3CCCN3C)nc3c(F)c(-c4nc(N)cc(C)c4C(F)(F)F)c(Cl)cc23)C(C)C1 yielded an IC50 (curve of first compound, second compound 0.00316 µM) greater than 10 µM, an IC50 (curve of first compound, second compound 0.01 µM) greater than 10 µM and an IC50 [1] greater than 10 µM. For the same compound, the IC50 [2] was greater than 10 µM, the IC50 [3] was greater than 10 µM and the IC50 [4] was 8.82 µM. The viability, T/C (second compound 0.00316 µM, first compound 0.0316 µM) was 95.4%, the viability, T/C (second compound 0.00316 µM, first compound 0.1 µM) was 93.5% and the viability, T/C (second compound 0.00316 µM, first compound 0.316 µM) was 101%. It also gave a viability, T/C (second compound 0.00316 µM, first compound 1 µM) of 111%, a viability, T/C (second compound 0.00316 µM, first compound 3.16 µM) of 116% and a viability, T/C (second compound 0.00316 µM, first compound 10 µM) of 59.6%. For the same compound, the viability, T/C (second compound 0.01 µM, first compound 0.0316 µM) was 109%, the viability, T/C (second compound 0.01 µM, first compound 0.1 µM) was 91.8% and the viability, T/C (second compound 0.01 µM, first compound 0.316 µM) was 104%. It also gave a viability, T/C (second compound 0.01 µM, first compound 1 µM) of 109%, a viability, T/C (second compound 0.01 µM, first compound 3.16 µM) of 124% and a viability, T/C (second compound 0.01 µM, first compound 10 µM) of 58.1%. The viability, T/C [7] was 99.5%, the viability, T/C [8] was 96% and the viability, T/C [9] was 107%. For the same compound, the viability, T/C [10] was 110%, the viability, T/C [11] was 122% and the viability, T/C [12] was 57.6%. For the same compound, the viability, T/C [13] was 94.4%, the viability, T/C [14] was 95.3% and the viability, T/C [15] was 107%. For the same compound, the viability, T/C [16] was 112%, the viability, T/C [17] was 126% and the viability, T/C [18] was 56.4%. It also gave a viability, T/C [19] of 99.6%, a viability, T/C [20] of 102% and a viability, T/C [21] of 97.5%. For the same compound, the viability, T/C [22] was 120%, the viability, T/C [23] was 124% and the viability, T/C [24] was 60.3%. For the same compound, the viability, T/C [25] was 97.5%, the viability, T/C [26] was 94.5% and the viability, T/C [27] was 101%. The viability, T/C [28] was 118%, the viability, T/C [29] was 120% and the viability, T/C [30] was 43.1%.
With `CCn1c(-c2cc(N3CCN(C)CC3)cnc2C(C)OC)c2c3cc(ccc31)-c1csc(n1)CC(NC(=O)C1CC1C)C(=O)N1CCCC(N1)C(=O)OCC(C)(C)C2` (stereo unspecified) the viability, T/C (compound 0.003 µM) was 92.1% [middle of 8 runs], the viability, T/C (compound 0.00949 µM) was 78.3% [middle of 8 runs] and the viability, T/C (compound 0.03 µM) was 60.2% [middle of 8 runs]. For the same compound, the viability, T/C (compound 0.0949 µM) was 51.3% [middle of 8 runs] and the viability, T/C (compound 0.3 µM) was 43% [middle of 8 runs].
